Source: US10640506B2, “Cyclobutyl substituted pyrrolopyridine and pyrrolopyrimidines derivatives as JAK inhibitors” (Incyte Corporation, priority 2010, dated 2020)
Read-outs that look alike come from different tables or passages of the source.

Legend:
[1] = biological target: human JAK1 (a.a. 837-1142) (Homo sapiens, UniProt P23458); experiment: In vitro JAK kinase assay (HTRF, phosphorylation of biotinylated peptide), JAK1; assay type: biochemical; details: 1 mM ATP, read-out: JAK1 IC50
In short: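 Phosphorylation of a biotinylated peptide was run at room temperature for 1 hour using the N-terminally His-tagged JAK1 kinase domain (837-1142) from insect cells. After an EDTA stop, Eu-Py20 and SA-APC gave an HTRF read; values are binned potency ranges.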

[2] = biological target: T1, JAK2 (a.a. 828-1132) (Homo sapiens, UniProt O60674); experiment: In vitro JAK kinase assay (HTRF, phosphorylation of biotinylated peptide), JAK2; assay type: biochemical; details: 1 mM ATP, read-out: JAK2 IC50
T1 construct: JAK2 (a.a. 828-1132); His tag (N)
T1 sequence (O60674 828-1132): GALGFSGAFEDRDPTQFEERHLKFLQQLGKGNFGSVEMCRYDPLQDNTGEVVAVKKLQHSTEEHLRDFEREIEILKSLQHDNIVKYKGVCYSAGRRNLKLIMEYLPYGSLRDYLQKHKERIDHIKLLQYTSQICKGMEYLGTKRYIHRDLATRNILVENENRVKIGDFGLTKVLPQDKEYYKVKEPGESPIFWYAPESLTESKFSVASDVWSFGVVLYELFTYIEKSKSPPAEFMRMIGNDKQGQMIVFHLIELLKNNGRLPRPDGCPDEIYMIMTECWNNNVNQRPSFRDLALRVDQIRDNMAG
In short: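 HTRF detection (Eu-Py20, SA-APC, 40 min) of biotinylated-peptide phosphorylation, following a 1 hour room-temperature reaction quenched with 45 mM EDTA. Enzymes: insect-cell-expressed N-terminal His-tagged JAK1 (837-1142) and JAK2 (828-1132) catalytic domains. Activities reported in ranged categories.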

Chain of human JAK1 (a.a. 837-1142) (P23458 849-1154): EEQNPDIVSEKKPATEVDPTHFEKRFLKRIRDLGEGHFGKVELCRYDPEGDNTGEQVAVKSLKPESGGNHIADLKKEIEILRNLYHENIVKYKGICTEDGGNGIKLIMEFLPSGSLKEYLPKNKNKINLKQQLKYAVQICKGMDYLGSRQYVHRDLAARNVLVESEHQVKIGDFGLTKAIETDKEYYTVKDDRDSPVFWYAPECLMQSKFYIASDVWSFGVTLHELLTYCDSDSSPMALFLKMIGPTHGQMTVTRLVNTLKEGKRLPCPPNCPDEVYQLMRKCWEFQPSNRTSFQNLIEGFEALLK

Compound	IC50 ([1]; Table A) [nM]	IC50 ([2]; Table A) [nM]	IC50 ([1]; Table B) [nM]	IC50 ([2]; Table B) [nM]
N#CC[C@]1(n2cc(-c3ncnc4[nH]ccc34)cn2)C[C@@H](N2CCN(C(=O)c3cccc(C(F)F)n3)CC2)C1 [Example 21a, {cis-3-(4-{[6-(difluoromethyl)pyridin-2-yl]carbonyl}piperazin-1-yl)-1-[4-(7H-pyrrolo[2,3-d]pyrimidin-4-yl)-1H-pyrazol-1-yl]cyclobutyl}acetonitrile]	< 10	25 to 100		
N#CC[C@]1(n2cc(-c3ncnc4[nH]ccc34)cn2)C[C@H](N2CCN(C(=O)c3cccc(C(F)F)n3)CC2)C1 [Example 21b, {trans-3-(4-{[6-(difluoromethyl)pyridin-2-yl]carbonyl}piperazin-1-yl)-1-[4-(7H-pyrrolo[2,3-d]pyrimidin-4-yl)-1H-pyrazol-1-yl]cyclobutyl}acetonitrile]			< 10	10 to 25
N#CC[C@]1(n2cc(-c3ncnc4[nH]ccc34)cn2)C[C@@H](N2CCN(C(=O)c3cccc(C(F)(F)F)c3F)CC2)C1 [Example 22, {cis-3-{4-[2-fluoro-3-(trifluoromethyl)benzoyl]piperazin-1-yl}-1-[4-(7H-pyrrolo[2,3-d]pyrimidin-4-yl)-1H-pyrazol-1-yl]cyclobutyl}acetonitrile]	< 10	25 to 100		
N#CC[C@]1(n2cc(-c3ncnc4[nH]ccc34)cn2)C[C@@H](N2CCN(Cc3cncc(F)c3)CC2)C1 [Example 23a, {cis-3-{4-[(5-fluoropyridin-3-yl)methyl]piperazin-1-yl}-1-[4-(7H-pyrrolo[2,3-d]pyrimidin-4-yl)-1H-pyrazol-1-yl]cyclobutyl}acetonitrile]	10 to 25	> 100		
N#CC[C@]1(n2cc(-c3ncnc4[nH]ccc34)cn2)C[C@H](N2CCN(Cc3cncc(F)c3)CC2)C1 [Example 23b, {trans-3-{4-[(5-fluoropyridin-3-yl)methyl]piperazin-1-yl}-1-[4-(7H-pyrrolo[2,3-d]pyrimidin-4-yl)-1H-pyrazol-1-yl]cyclobutyl}acetonitrile]			< 10	25 to 100
CC(C)c1nccc(C(=O)N2CCN([C@H]3C[C@@](CC#N)(n4cc(-c5ncnc6[nH]ccc56)cn4)C3)CC2)n1 [Example 24a, {cis-3-{4-[(2-isopropylpyrimidin-4-yl)carbonyl]piperazin-1-yl}-1-[4-(7H-pyrrolo[2,3-d]pyrimidin-4-yl)-1H-pyrazol-1-yl]cyclobutyl}acetonitrile]	10 to 25	> 100		
CC(C)c1nccc(C(=O)N2CCN([C@H]3C[C@](CC#N)(n4cc(-c5ncnc6[nH]ccc56)cn4)C3)CC2)n1 [Example 24b, {trans-3-{4-[(2-isopropylpyrimidin-4-yl)carbonyl]piperazin-1-yl}-1-[4-(7H-pyrrolo[2,3-d]pyrimidin-4-yl)-1H-pyrazol-1-yl]cyclobutyl}acetonitrile]			10 to 25	25 to 100
N#CC[C@]1(n2cc(-c3ncnc4[nH]ccc34)cn2)C[C@H](N2CCN(C(=O)N3CCCCC3)CC2)C1 [Example 25, {trans-3-[4-(piperidin-1-ylcarbonyl)piperazin-1-yl]-1-[4-(7H-pyrrolo[2,3-d]pyrimidin-4-yl)-1H-pyrazol-1-yl]cyclobutyl}acetonitrile]			25 to 100	> 100
N#CC[C@]1(n2cc(-c3ncnc4[nH]ccc34)cn2)C[C@@H](N2CCN(C(=O)c3ccc(F)c(OC(F)(F)F)c3)CC2)C1 [Example 26, {cis-3-{4-[4-fluoro-3-(trifluoromethoxy)benzoyl]piperazin-1-yl}-1-[4-(7H-pyrrolo[2,3-d]pyrimidin-4-yl)-1H-pyrazol-1-yl]cyclobutyl}acetonitrile]	10 to 25	25 to 100		
N#CC[C@]1(n2cc(-c3ncnc4[nH]ccc34)cn2)C[C@@H](N2CCN(C(=O)c3ncc(C(F)(F)F)cc3F)CC2)C1 [Example 27, {cis-3-(4-{[3-fluoro-5-(trifluoromethyl)pyridin-2-yl]carbonyl}piperazin-1-yl)-1-[4-(7H-pyrrolo[2,3-d]pyrimidin-4-yl)-1H-pyrazol-1-yl]cyclobutyl}acetonitrile]	< 10	25 to 100		
